In paper PMC4855137, “Raffinose, a plant galactoside, inhibits Pseudomonas aeruginosa biofilm formation via binding to LecA and decreasing cellular cyclic diguanylate levels” (Scientific Reports, 2016) one finds Kd data, which are given here for 2 compounds.

The target in assay [1] is T1, LecA (PA-IL) (Pseudomonas aeruginosa, UniProt Q05097). Nature of the assay: isothermal titration calorimetry; 1D relaxation-edited (CPMG) NMR with galactose competition. Type of assay: binding.
Assay [2] has as its target T1, LecA (PA-IL). As to the kind of experiment: isothermal titration calorimetry; CPMG NMR competition with raffinose. It counts as binding.

T1 sequence (Q05097 2-122): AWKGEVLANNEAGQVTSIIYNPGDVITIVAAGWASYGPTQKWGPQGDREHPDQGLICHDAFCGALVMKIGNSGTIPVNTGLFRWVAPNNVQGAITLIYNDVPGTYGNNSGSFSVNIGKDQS

Usually Kd stands for the equilibrium constant for the complex coming apart. The low end stands for higher affinity, the high end for lower affinity. As for `OC[C@H]1O[C@H](OC[C@H]2O[C@H](O[C@]3(CO)O[C@H](CO)[C@@H](O)[C@@H]3O)[C@H](O)[C@@H](O)[C@@H]2O)[C@H](O)[C@@H](O)[C@H]1O` [raffinose], in assay [1], binding was characterised by a dissociation constant (Kd) of 32 µM. Regarding `OC[C@H]1OC(O)[C@H](O)[C@@H](O)[C@H]1O` (stereo partly drawn) [D-galactose], binding in assay [2] was put at a Kd of 47 µM.
